Values after ≈ are worked out from the molar mass of the structure shown. Read-outs that look alike come from different tables or passages of the source.
Legend:
B. subtilis [1] = experiment: MIC assay, 2-fold serial dilution in 96-well microtiter plate; format: cell-based, Bacillus subtilis (ATCC 6051)
Procedure: (§1) The outcomes of this in vitro assay test align with the results of the antimicrobial sensitivity test.
(§2) Appendix A (Supplementary File) provides experimental details.
(§3) In 96-well microtiter plates and […] of fresh bacterial culture of a single McFarland unit overnight, a double serial dilution of each compound […] in sterile standard saline were prepared to every single source well. […] The plates were incubated at 37 °C overnight. As an indicator of bacterial growth, […] of p-iodonitrotetrazolium violet (INT) was added to each well and incubated at 37 °C for 30 min. […] The colorless tetrazolidium salt acts as an electron accepter and is reduced to a red colored formazan product by biological activity organisms. Where bacterial growth was inhibited, the solution in the well remained clear after incubation with INT.

S. aureus [2] = experiment: as above; format: cell-based, Staphylococcus aureus (ATCC 12600)
Procedure: as §1, §2, §3

E. coli [3] = experiment: as above; format: cell-based, Escherichia coli (ATCC 11775)
Procedure: as §1, §2, §3

P. aeruginosa [4] = experiment: as above; format: cell-based, Pseudomonas aeuroginosa (ATCC 10145)
Procedure: as §1, §2, §3

B. subtilis [5] = experiment: Minimum bactericidal concentration (MBC) assay; format: cell-based, Bacillus subtilis
From the text: (§4) The MBC differs from the MIC. […] Unlike the MBC, which leads to mortality, the MIC hinders bacterial growth without causing death.[41] The common expression for MBC is MBC50, signifying the antibiotic concentration that eliminates 50% of the initial bacterial population.[42]

S. aureus [6] = experiment: Minimum bactericidal concentration (MBC) assay; format: cell-based, Staphylococcus aureus
From the text: as §4

E. coli [7] = experiment: Minimum bactericidal concentration (MBC) assay; format: cell-based, Escherichia coli
From the text: as §4

P. aeruginosa [8] = experiment: Minimum bactericidal concentration (MBC) assay; format: cell-based, Pseudomonas aeuroginosa
From the text: as §4

tested bacteria = experiment: MIC summarised over the tested bacteria (abstract); format: cell-based; settings: read-out: MIC values
Procedure: as §1, §3

Gram-positive bacteria = experiment: MBC summarised over Gram-positive bacteria; format: cell-based
From the text: as §4

B. subtilis [9] = experiment: Modified disk diffusion, inhibition zone; settings: B. subtilis (G+)
E. coli [10] = experiment: Modified disk diffusion, inhibition zone; settings: E. coli (G-)
P. aeruginosa [11] = experiment: Modified disk diffusion, inhibition zone; settings: P. aeruginosa (G-)
[12] = test system: Gram-positive and Gram-negative bacteria (B. subtilis, S. aureus, E. coli, P. aeruginosa); experiment: Disk diffusion, inhibition zones summarised over the tested bacterial strains; settings: over the four tested bacterial strains
A. flavus [13] = experiment: Antifungal MIC assay, 2-fold serial dilution; format: cell-based, Aspergillus flavus
C. albicans [14] = experiment: Antifungal MIC assay, 2-fold serial dilution; format: cell-based, Candida albicans
E. coli DNA gyrase = target: T1, E. coli DNA gyrase (Escherichia coli, UniProt P0AES6); experiment: DNA gyrase inhibitory (supercoiling) assay; format: biochemical
T1 construct: purchased Inspiralis
Procedure: (§5) IC50 values were determined using seven different inhibitor concentrations and then calculated using the GraphPad Prism 6.0 software.
All the final compounds were tested for E. coli DNA gyrase inhibitory activity in a supercoiling assay. Activities were determined on streptavidin-coated 96-well microtiter plates from Thermo scientific Pierce. […] After washing off the unbound oligonucleotide, the enzyme test was performed. […] After that, the TF buffer (50 mM NaOAc with pH 5.0, 50 mM NaCl and 50 mM MgCl2) was added to terminate the enzymatic reaction. After additional incubation for 30 min at rt, during which biotin-oligonucleotide-plasmid triplex was formed, the unbound plasmid was washed off using TF buffer and SybrGOLD in T10 buffer (10 mM Tris HCl with pH 8.0 and 1 mM EDTA) was added. […] Initial screening was done at 100 or 10 μM concentration of inhibitors. […] GraphPad Prism software was used to calculate the IC50 values. The result is given as the average value of three independent measurements.

DHFR E. coli = target: T2, DHFR E. coli (Escherichia coli, UniProt P0ABQ4); experiment: DHFR inhibitory assay; format: biochemical
T2 construct: purchased Inspiralis
Procedure: as §5

S. aureus [15] = experiment: Modified disk diffusion, inhibition zone; settings: S. aureus (G+)
A. flavus [16] = experiment: Modified disk diffusion, inhibition zone; settings: A. flavus (fungi)
C. albicans [17] = experiment: Modified disk diffusion, inhibition zone; settings: C. albicans (fungi)
[18] = Bacillus subtilis, read-out: MIC
[19] = Staphylococcus aureus, read-out: MIC
[20] = Escherichia coli, read-out: MIC
[21] = Pseudomonas aeruginosa, read-out: MIC
[22] = Bacillus subtilis, read-out: MBC
[23] = Staphylococcus aureus, read-out: MBC
[24] = Escherichia coli, read-out: MBC
[25] = Pseudomonas aeruginosa, read-out: MBC
[26] = Aspergillus flavus, read-out: MIC
[27] = Candida albicans, read-out: MIC

T2 sequence (P0ABQ4 whole entry): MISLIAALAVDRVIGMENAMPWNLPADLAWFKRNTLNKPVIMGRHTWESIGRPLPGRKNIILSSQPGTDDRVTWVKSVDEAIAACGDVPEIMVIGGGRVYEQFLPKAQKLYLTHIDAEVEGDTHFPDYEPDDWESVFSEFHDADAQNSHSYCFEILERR

With `O=C(O)c1cn(C2CC2)c2cc(N3CCNCC3)c(F)cc2c1=O` [Ciprofloxacin, reference compound] the MIC (B. subtilis [1]) was 0.01 ± 0.001 µM (≈ 0.00331 µg/mL), the MIC (B. subtilis [1]; [18]) was 0.01 µM (≈ 0.00331 µg/mL) and the MIC (S. aureus [2]; [19]) was 0.03 ± 0.002 µM (≈ 0.00994 µg/mL). It also gave an MIC (E. coli [3]; [20]) of 0.06 ± 0.004 µM (≈ 0.0199 µg/mL), an MIC (P. aeruginosa [4]) of 0.06 ± 0.005 µM (≈ 0.0199 µg/mL) and an MIC (P. aeruginosa [4]; [21]) of 0.06 µM (≈ 0.0199 µg/mL). For the same compound, the MBC (B. subtilis [5]) was 0.019 ± 0.001 µM (≈ 0.0063 µg/mL), the MBC (B. subtilis [5]; [22]) was 0.019 µM (≈ 0.0063 µg/mL) and the MBC (S. aureus [6]) was 0.045 ± 0.002 µM (≈ 0.0149 µg/mL). The MBC (S. aureus [6]; [23]) was 0.046 µM (≈ 0.0152 µg/mL), the MBC (E. coli [7]) was 0.09 ± 0.006 µM (≈ 0.0298 µg/mL) and the MBC (E. coli [7]; [24]) was 0.09 µM (≈ 0.0298 µg/mL). For the same compound, the MBC (P. aeruginosa [8]) was 0.09 ± 0.006 µM (≈ 0.0298 µg/mL), the MBC (P. aeruginosa [8]; [25]) was 0.09 µM (≈ 0.0298 µg/mL) and the MIC (tested bacteria) was 10 to 90 µM (≈ 3.31 to 29.8 µg/mL). The MBC (Gram-positive bacteria) was 0.019 to 0.045 µM (≈ 0.0063 to 0.0149 µg/mL), the “Inhibition Zone (IZ) Diameter” value (B. subtilis [9]) was 40 mm/mL and the “Inhibition Zone (IZ) Diameter” value (E. coli [10]) was 40 mm/mL. The “Inhibition Zone (IZ) Diameter” value (P. aeruginosa [11]) was 40 mm/mL and the “Inhibition Zone (IZ) Diameter” value [12] was 40 mm.

In the case of `COc1ccc(-c2cc(-c3ccc(Cl)cc3)n3nc(-c4ccccc4)nc3n2)cc1` [Compound 9n, 7-(4-Chlorophenyl)-5-(4-methoxyphenyl)-2-phenyl-1,2,4-triazolo[1,5-a]pyrimidine], the “times less effective than ciprofloxacin (MIC)” value (B. subtilis [1]) is reported as 3, the MIC (B. subtilis [1]; [18]) is reported as 0.029 ± 0.002 µM (≈ 0.012 µg/mL) and the MIC (S. aureus [2]; [19]) is reported as 0.033 ± 0.002 µM (≈ 0.0136 µg/mL). The MIC (E. coli [3]; [20]) was 0.065 ± 0.004 µM (≈ 0.0268 µg/mL), the MIC (P. aeruginosa [4]; [21]) was 0.064 ± 0.005 µM (≈ 0.0264 µg/mL) and the MBC (B. subtilis [5]) was 0.049 ± 0.002 µM (≈ 0.0202 µg/mL). For the same compound, the “folds less potent than ciprofloxacin as a bactericidal agent (MBC)” value (B. subtilis [5]) was 2.6, the MBC (B. subtilis [5]; [22]) was 0.049 µM (≈ 0.0202 µg/mL) and the MBC (S. aureus [6]; [23]) was 0.065 ± 0.002 µM (≈ 0.0268 µg/mL). For the same compound, the MBC (E. coli [7]) was 0.093 ± 0.006 µM (≈ 0.0384 µg/mL), the MBC (E. coli [7]; [24]) was 0.093 µM (≈ 0.0384 µg/mL) and the MBC (P. aeruginosa [8]) was 0.094 ± 0.006 µM (≈ 0.0388 µg/mL). For the same compound, the MBC (P. aeruginosa [8]; [25]) was 0.094 µM (≈ 0.0388 µg/mL), the MIC (A. flavus [13]; [26]) was 18.5 ± 1 µM (≈ 7.64 µg/mL) and the MIC (C. albicans [14]; [27]) was 21.9 ± 1 µM (≈ 9.04 µg/mL). For the same compound, the IC50 (E. coli DNA gyrase) was 0.19 ± 0.011 µM, the IC50 (DHFR E. coli) was 4.6 ± 0.2 µM and the “Inhibition Zone (IZ) Diameter” value (B. subtilis [9]) was 40 mm/mL. For the same compound, the “Inhibition Zone (IZ) Diameter” value (S. aureus [15]) was 41, the “Inhibition Zone (IZ) Diameter” value (E. coli [10]) was 40 mm/mL and the “Inhibition Zone (IZ) Diameter” value (P. aeruginosa [11]) was 40 mm/mL. For the same compound, the “Inhibition Zone (IZ) Diameter” value (A. flavus [16]) was 32 mm/mL, the “Inhibition Zone (IZ) Diameter” value (C. albicans [17]) was 36 mm and the “Inhibition Zone (IZ) Diameter” value [12] was “approximately 40 mm”.

In the case of `COc1ccc(-c2cc(-c3ccc(C)cc3)n3nc(-c4ccccc4)nc3n2)cc1` [Compound 9o, 5-(4-Methoxyphenyl)-2-phenyl-7-p-tolyl-1,2,4-triazolo[1,5-a]pyrimidine], the MIC (B. subtilis [1]) is reported as 0.016 ± 0.001 µM (≈ 0.00628 µg/mL), the “times less effective than ciprofloxacin (MIC)” value (B. subtilis [1]) is reported as 1.6 and the MIC (B. subtilis [1]; [18]) is reported as 0.016 µM (≈ 0.00628 µg/mL). The MIC (S. aureus [2]) was 0.024 ± 0.001 µM (≈ 0.00942 µg/mL), the MIC (S. aureus [2]; [19]) was 0.024 µM (≈ 0.00942 µg/mL) and the MIC (E. coli [3]) was 0.051 ± 0.003 µM (≈ 0.02 µg/mL). For the same compound, the MIC (E. coli [3]; [20]) was 0.051 µM (≈ 0.02 µg/mL), the MIC (P. aeruginosa [4]) was 0.053 ± 0.004 µM (≈ 0.0208 µg/mL) and the MIC (P. aeruginosa [4]; [21]) was 0.053 µM (≈ 0.0208 µg/mL). The MBC (B. subtilis [5]) was 0.032 ± 0.002 µM (≈ 0.0126 µg/mL), the “folds less potent than ciprofloxacin as a bactericidal agent (MBC)” value (B. subtilis [5]) was 1.7 and the MBC (B. subtilis [5]; [22]) was 0.032 µM (≈ 0.0126 µg/mL). For the same compound, the MBC (S. aureus [6]) was 0.046 ± 0.002 µM (≈ 0.0181 µg/mL), the MBC (S. aureus [6]; [23]) was 0.046 µM (≈ 0.0181 µg/mL) and the MBC (E. coli [7]) was 0.087 ± 0.006 µM (≈ 0.0341 µg/mL). It also gave an MBC (E. coli [7]; [24]) of 0.087 µM (≈ 0.0341 µg/mL), an MBC (P. aeruginosa [8]) of 0.084 ± 0.005 µM (≈ 0.033 µg/mL) and an MBC (P. aeruginosa [8]; [25]) of 0.084 µM (≈ 0.033 µg/mL). It also gave an MIC (A. flavus [13]) of 15.50 ± 1 µM (≈ 6.08 µg/mL), an MIC (A. flavus [13]; [26]) of 15.5 µM (≈ 6.08 µg/mL) and an MIC (C. albicans [14]) of 19.50 ± 1 µM (≈ 7.65 µg/mL). It also gave an MIC (C. albicans [14]; [27]) of 19.5 µM (≈ 7.65 µg/mL), an IC50 (E. coli DNA gyrase) of 0.182 ± 0.01 µM and an IC50 (DHFR E. coli) of 3.9 ± 0.1 µM. The “Inhibition Zone (IZ) Diameter” value (B. subtilis [9]) was 43 mm/mL, the “Inhibition Zone (IZ) Diameter” value (S. aureus [15]) was 45 and the “Inhibition Zone (IZ) Diameter” value (E. coli [10]) was 43 mm/mL. The “Inhibition Zone (IZ) Diameter” value (P. aeruginosa [11]) was 42 mm/mL, the “Inhibition Zone (IZ) Diameter” value (A. flavus [16]) was 35 mm/mL and the “Inhibition Zone (IZ) Diameter” value (C. albicans [17]) was 38 mm. The “Inhibition Zone (IZ) Diameter” value [12] was 42–45 mm.

`COc1ccc(-c2cc(-c3ccc(OC)cc3)n3nc(-c4ccccc4)nc3n2)cc1` [Compound 9p, 5,7-Bis(4-methoxyphenyl)-2-phenyl-1,2,4-triazolo[1,5-a]pyrimidine] gave an MIC (B. subtilis [1]; [18]) of 0.035 ± 0.002 µM (≈ 0.0143 µg/mL), an MIC (S. aureus [2]) of 0.037 ± 0.002 µM (≈ 0.0151 µg/mL) and an MIC (S. aureus [2]; [19]) of 0.069 µM (≈ 0.0282 µg/mL). The MIC (E. coli [3]; [20]) was 0.069 ± 0.004 µM (≈ 0.0282 µg/mL), the MIC (P. aeruginosa [4]) was 0.068 ± 0.005 µM (≈ 0.0278 µg/mL) and the MIC (P. aeruginosa [4]; [21]) was 0.068 µM (≈ 0.0278 µg/mL). It also gave an MBC (B. subtilis [5]; [22]) of 0.052 ± 0.003 µM (≈ 0.0212 µg/mL), an MBC (S. aureus [6]; [23]) of 0.069 ± 0.003 µM (≈ 0.0282 µg/mL) and an MBC (E. coli [7]) of 0.097 ± 0.006 µM (≈ 0.0396 µg/mL). It also gave an MBC (E. coli [7]; [24]) of 0.097 µM (≈ 0.0396 µg/mL), an MBC (P. aeruginosa [8]) of 0.098 ± 0.006 µM (≈ 0.04 µg/mL) and an MBC (P. aeruginosa [8]; [25]) of 0.098 µM (≈ 0.04 µg/mL). The MIC (A. flavus [13]; [26]) was 19.9 ± 1 µM (≈ 8.13 µg/mL), the MIC (C. albicans [14]; [27]) was 23.7 ± 1 µM (≈ 9.68 µg/mL) and the IC50 (E. coli DNA gyrase) was 0.205 ± 0.013 µM. The IC50 (DHFR E. coli) was 5.4 ± 0.2 µM, the “Inhibition Zone (IZ) Diameter” value (B. subtilis [9]) was 38 mm/mL and the “Inhibition Zone (IZ) Diameter” value (S. aureus [15]) was 39. The “Inhibition Zone (IZ) Diameter” value (E. coli [10]) was 37 mm/mL, the “Inhibition Zone (IZ) Diameter” value (P. aeruginosa [11]) was 38 mm/mL and the “Inhibition Zone (IZ) Diameter” value (A. flavus [16]) was 30 mm/mL. For the same compound, the “Inhibition Zone (IZ) Diameter” value (C. albicans [17]) was 31 mm and the “Inhibition Zone (IZ) Diameter” value [12] was “approximately 38 mm”.

Reference: article PMC11603275, “Synthesis and Antimicrobial Evaluation of New 1,2,4-Triazolo[1,5-a]pyrimidine-Based Derivatives as Dual Inhibitors of Bacterial DNA Gyrase and DHFR” (ACS Omega, 2024)
